Data reported in ChEMBL document CHEMBL1130566, “A nonpeptidic agonist ligand of the human C5a receptor: Synthesis, binding affinity optimization and functional characterization” (Bioorg Med Chem Lett, 1997).

Experiments:
[1] = target: T1, C5a anaphylatoxin chemotactic receptor 1 (Homo sapiens) (UniProt P21730); assay: Tested for the ability to compete with [125I]-CO13 [125I]-Y-F-K-A-Cha-G-L-dF-R) for binding to C5a anaphylatoxin chemotactic receptor of human neutrophil membrane preparations at 30 uM concentration
T1 sequence (whole entry): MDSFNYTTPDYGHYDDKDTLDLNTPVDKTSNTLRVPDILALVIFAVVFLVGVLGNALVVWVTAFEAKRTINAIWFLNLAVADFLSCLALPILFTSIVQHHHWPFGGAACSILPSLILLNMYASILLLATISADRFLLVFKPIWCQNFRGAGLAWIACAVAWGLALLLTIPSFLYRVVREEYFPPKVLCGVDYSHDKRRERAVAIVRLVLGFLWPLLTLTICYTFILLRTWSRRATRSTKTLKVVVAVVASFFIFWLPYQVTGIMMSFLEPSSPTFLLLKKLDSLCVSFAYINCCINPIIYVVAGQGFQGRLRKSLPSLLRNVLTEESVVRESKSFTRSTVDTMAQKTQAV

[2] = target: T1, C5a anaphylatoxin chemotactic receptor 1 (Homo sapiens); assay: Inhibition of [125I]C5a binding to C5a anaphylatoxin chemotactic receptor of human neutrophil membrane preparations at 30 uM.
[3] = target: T2, C5a anaphylatoxin chemotactic receptor 1 (Homo sapiens, UniProt P21730); assay: Tested for its ability to compete with [125I]C5a for binding to C5a anaphylatoxin chemotactic receptor of human neutrophil membrane preparations
T2 sequence (P21730 whole entry): T1 sequence (whole entry)

[4] = target: T2, C5a anaphylatoxin chemotactic receptor 1; assay: Tested for the ability to compete with [125I]-CO13 ([125I]-Y-F-K-A-Cha-G-L-dF-R) for binding to C5a anaphylatoxin chemotactic receptor from human neutrophil membrane preparations
[5] = target: T1, C5a anaphylatoxin chemotactic receptor 1 (Homo sapiens); assay: Tested for […] to evaluate its ability to block C5a induced myeloperoxide (MPO release from neutrophils (for antagonists) or induce MPO release (for agonists)
[6] = target: T1, C5a anaphylatoxin chemotactic receptor 1 (Homo sapiens); assay: Tested for the ability to compete with [125I]-CO13 [125I]-Y-F-K-A-Cha-G-L-dF-R) for binding to C5a anaphylatoxin chemotactic receptor of human neutrophil membrane preparations; conditions: concentration not given here
[7] = target: T1, C5a anaphylatoxin chemotactic receptor 1 (Homo sapiens); assay: Tested for the ability to compete with [125I]C5a for binding to human C5a anaphylatoxin chemotactic receptor of human neutrophil membrane preparations at 30 uM concentration
[8] = target: T2, C5a anaphylatoxin chemotactic receptor 1; assay: Tested for the its ability to compete with [125I]-CO13 [125I]-Y-F-K-A-Cha-G-L-dF-R) for binding to C5a anaphylatoxin chemotactic receptor of human neutrophil membrane preparations

| Compound | inhibition [2] | IC50 [3] | IC50 [4] | further results |
| --- | --- | --- | --- | --- |
| Nc1ccc(C[C@H]2NC(=O)N([C@H](CC3CCCCC3)C(=O)N3CCC4(CCc5ccccc54)CC3)C2=O)cc1 | – | – | – | inhibition [1]: 75% |
| N=C(N)NCCC[C@H]1NC(=O)N(C(Cc2ccccc2)C(=O)N2CCC3(CCc4ccccc43)CC2)C1=O (stereo partly specified) | 60% | – | – | inhibition [1]: 78% |
| N=C(N)NCCC[C@H]1NC(=O)N([C@H](Cc2ccccc2)C(=O)N2CCC3(CCc4ccccc43)CC2)C1=O | – | 8000 nM | 800 nM | – |
| Cc1cccc(C)c1N1CCN(C(=O)[C@@H](CC2CCCCC2)N2C(=O)N[C@H](CCCN=C(N)N)C2=O)CC1 | – | 220 nM | 40 nM | Release [5]: 78% |
| N=C(N)NCCC[C@H]1NC(=O)N([C@H](Cc2ccc(F)cc2)C(=O)N2CCC3(CCc4ccccc43)CC2)C1=O | 75% | – | 230 nM | – |
| CC(C)C[C@H](C(=O)N1CCC2(CCc3ccccc32)CC1)N1C(=O)N[C@H](CCCN=C(N)N)C1=O | – | 2000 nM | 450 nM | Release [5]: 10% |
| NC(=O)NCCC[C@H]1NC(=O)N([C@H](CC2CCCCC2)C(=O)N2CCC3(CCc4ccccc43)CC2)C1=O | – | – | – | inhibition [1]: 58% |
| N=C(N)NCCC[C@H]1NC(=O)N([C@H](Cc2cccc3ccccc23)C(=O)N2CCC3(CCc4ccccc43)CC2)C1=O | 77% | – | 11000 nM | – |
| N=C(N)NCCCC[C@H]1NC(=O)N([C@H](CC2CCCCC2)C(=O)N2CCC3(CCc4ccccc43)CC2)C1=O | – | – | 300 nM | – |
| CC(C)c1ccccc1N1CCN(C(=O)[C@@H](CC2CCCCC2)N2C(=O)N[C@H](CCCN=C(N)N)C2=O)CC1 | – | – | – | inhibition [1]: 14% |
| CCCC[C@H](C(=O)N1CCC2(CCc3ccccc32)CC1)N1C(=O)N[C@H](CCCN=C(N)N)C1=O | 20% | – | – | inhibition [6]: 54% |
| N=C(N)NCCC[C@H]1NC(=O)N([C@H](CC2CCCCC2)C(=O)N2CCC(c3ccccc3)CC2)C1=O | – | 400 nM | 30 nM | Release [5]: 88% |
| NCCCC[C@H]1NC(=O)N([C@H](CC2CCCCC2)C(=O)N2CCC3(CCc4ccccc43)CC2)C1=O | – | – | 4000 nM | – |
| N=C(N)NCCC[C@H]1NC(=O)N([C@H](CC2CCCCC2)C(=O)N2CCN(c3ccccc3)CC2)C1=O | 66% | – | 1000 nM | – |
| Cc1ccccc1N1CCN(C(=O)[C@@H](CC2CCCCC2)N2C(=O)N[C@H](CCCN=C(N)N)C2=O)CC1 | – | 350 nM | 40 nM | Release [5]: 76% |
| N=C(N)NCCC[C@H]1NC(=O)N([C@@H](C(=O)N2CCC3(CCc4ccccc43)CC2)C(c2ccccc2)c2ccccc2)C1=O | – | – | – | inhibition [7]: 75% |
| N=C(N)NCCC[C@H]1NC(=O)N(C(CCc2ccccc2)C(=O)N2CCC3(CCc4ccccc43)CC2)C1=O (stereo partly specified) | 46% | – | 3000 nM | – |
| CC(=O)OCC1(c2ccccc2)CCN(C(=O)[C@@H](CC2CCCCC2)N2C(=O)N[C@H](CCCN=C(N)N)C2=O)CC1 | 35% | – | – | inhibition [1]: 48% |

| Compound | inhibition [2] | IC50 [3] | IC50 [4] | further results |
| --- | --- | --- | --- | --- |
| N=C(N)NCCC[C@H]1NC(=O)N([C@H](CC(=O)O)C(=O)N2CCC3(CCc4ccccc43)CC2)C1=O | 0% | – | – | – |
| CC(O)[C@H](C(=O)N1CCC2(CCc3ccccc32)CC1)N1C(=O)N[C@H](CCCN=C(N)N)C1=O (stereo partly specified) | 14% | – | – | inhibition [1]: 57% |
| CCC[C@H](C(=O)N1CCC2(CCc3ccccc32)CC1)N1C(=O)N[C@H](CCCN=C(N)N)C1=O | 63% | – | 3000 nM | – |
| N=C(N)NCCC[C@H]1NC(=O)N([C@H](CC2CCCCC2)C(=O)N2CCC3(CC2)CC(=O)c2ccccc23)C1=O | 58% | – | 1500 nM | – |
| N=C(N)NCCC[C@H]1NC(=O)N([C@H](Cc2ccc(-c3ccccc3)cc2)C(=O)N2CCC3(CCc4ccccc43)CC2)C1=O | – | 2300 nM | – | IC50 [8]: 900 nM |
| N=C(N)NCCC[C@H]1NC(=O)N([C@@H](Cc2ccccc2)C(=O)N2CCC3(CCc4ccccc43)CC2)C1=O | 3% | – | – | inhibition [1]: 15% |
| N=C(N)NCCC[C@H]1NC(=O)N([C@H](Cc2c[nH]c3ccccc23)C(=O)N2CCC3(CCc4ccccc43)CC2)C1=O | – | 5000 nM | 450 nM | – |
| N=C(N)NCCC[C@H]1NC(=O)N([C@H](CC(=O)N2CCCCC2)C(=O)N2CCC3(CCc4ccccc43)CC2)C1=O | 26% | – | – | inhibition [1]: 52% |
| N=C(N)NCCC[C@H]1NC(=O)N([C@H](Cc2ccc3ccccc3c2)C(=O)N2CCC3(CCc4ccccc43)CC2)C1=O | 67% | – | 2000 nM | – |
| N=C(N)NCCC[C@@H]1NC(=O)N([C@H](Cc2ccccc2)C(=O)N2CCC3(CCc4ccccc43)CC2)C1=O | 39% | – | 4000 nM | – |
| N=C(N)NCCC[C@H]1NC(=O)N([C@H](CC2CCCCC2)C(=O)N2CCC3(C=Cc4ccccc43)CC2)C1=O | – | 1500 nM | 300 nM | – |
| CC(C)[C@H](C(=O)N1CCC2(CCc3ccccc32)CC1)N1C(=O)N[C@H](CCCN=C(N)N)C1=O | 70% | – | 1200 nM | – |
| N=C(N)NCCC[C@H]1NC(=O)N([C@H](CC2CCC(C3CCCCC3)CC2)C(=O)N2CCC3(CCc4ccccc43)CC2)C1=O (stereo partly specified) | 26% | – | 5000 nM | – |
| CC[C@@H](C)[C@H](C(=O)N1CCC2(CCc3ccccc32)CC1)N1C(=O)N[C@H](CCCN=C(N)N)C1=O | – | 1200 nM | 200 nM | Release [5]: 31% |
| N=C(N)NCCC[C@H]1NC(=O)N([C@H](Cc2ccc(O)cc2)C(=O)N2CCC3(CCc4ccccc43)CC2)C1=O | – | – | 4000 nM | – |
| CSCC[C@H](C(=O)N1CCC2(CCc3ccccc32)CC1)N1C(=O)N[C@H](CCCN=C(N)N)C1=O | 57% | – | 3400 nM | – |
| N=C(N)NCCC[C@H]1NC(=O)N([C@H](CC2CCCCC2)C(=O)N2CCC3(CCc4ccccc43)CC2)C1=O | – | 300 nM | 25 nM | Release [5]: 86% |
| Cc1ccc(N2CCN(C(=O)[C@@H](CC3CCCCC3)N3C(=O)N[C@H](CCCN=C(N)N)C3=O)CC2)c(C)c1 | – | 300 nM | 60 nM | Release [5]: 90% |
